This is an account of results in ChEMBL document CHEMBL3785074, “Molecular modeling and snake venom phospholipase A2 inhibition by phenolic compounds: Structure-activity relationship” (Eur J Med Chem, 2016).

Calls of active or inactive are those of the source. The calls are words filed in the database; no cut-off is given here.

Series [1] in a line: (§1) Protective activity against Daboia russellii venom-induced hemorrhage in Swiss albino mouse at 100 mmol, iv assessed as hemorhagic lesion by measuring […] administered immediately after venom injection measured after 24 hrs (Rvb =5 ug). The class given is functional, Daboia russelii.
Series [2] has as its system Daboia russelii. Description: (§2) Protective activity against Daboia russellii venom-induced hemorrhage in intradermally dosed Swiss albino mouse at 100 mmol assessed as hemorhagic lesion by measuring minimal […] dose preincubated with venom for 1 hr followed by administration to mouse measured after 24 hrs (reference value: 5 ug). The class given is functional.
A short description of series [3]: Protective activity against Daboia russellii venom-induced hemorrhage in Swiss albino mouse at 100 mmol, iv assessed as hemorhagic lesion administered immediately after venom injection measured after 24 hrs relative to untreated control. The format is functional, Daboia russelii.
A short description of series [4]: Protective activity against Daboia russellii venom-induced mortality in Swiss albino mouse at 100 mmol, iv preincubated with venom for 1 hr followed by administration to mouse measured after 24 hrs relative to untreated control. The format is functional, Daboia russelii.
Series [5] can be described thus: Protective activity against Naja kaouthia venom-induced mortality in Swiss albino mouse at 100 mmol, iv by measuring venom LD50 preincubated with venom for 1 hr followed by administration to mouse measured after 24 hrs (reference value: 2.82 ug). The class given is functional.
Series [6] is described as follows: Protective activity against Naja kaouthia venom-induced mortality in Swiss albino mouse at 100 mmol, iv preincubated with venom for 1 hr followed by administration to mouse measured after 24 hrs relative to untreated control. The class given is functional.
Series [7] in a line: Protective activity against Daboia russellii venom-induced mortality in Swiss albino mouse at 100 mmol, iv administered immediately after venom injection measured after 24 hrs relative to untreated control. The format is functional, Daboia russelii.
Series [8] is described as follows: Lipophilicity, log P of compound. The class given is physicochemical. The settings on record: octanol/water; read-out: logP.
Series [9] in a line: Protective activity against Naja kaouthia venom-induced mortality in Swiss albino mouse at 100 mmol, iv by measuring venom LD50 administered immediately after venom injection measured after 24 hrs (reference value: 2.82 ug). The class given is functional.
Series [10] is described as follows: Protective activity against Daboia russellii venom-induced mortality in iv dosed Swiss albino mouse administered 60 mins after venom injection relative to untreated control. The class given is functional, Daboia russelii.
Series [11] concerns Daboia russelii. As to the kind of experiment: (§3) Protective activity against Daboia russellii venom-induced defibrinogenation in iv dosed Swiss albino mouse assessed as venom level causing blood coagulation at 100 mmol preincubated with venom for 1 hr followed by administration to mouse relative to untreated. The format is functional.
Series [12] concerns Daboia russelii. Description: Protective activity against Daboia russellii venom-induced coagulation in goat plasma assessed as increase in plasma recalcification time at 20 mmol preincubated with venom for 1 hr followed by plasma addition. The format is functional, cell-free.
Series [13] can be described thus: Protective activity against Daboia russellii venom-induced hemorrhage in intradermally dosed Swiss albino mouse at 100 mmol assessed as hemorhagic lesion preincubated with venom for 1 hr followed by administration to mouse measured after 24 hrs relative to untreated control. The class given is functional, Daboia russelii.
Series [14] in a line: Protective activity against Naja kaouthia venom-induced mortality in Swiss albino mouse at 100 mmol, iv administered immediately after venom injection measured after 24 hrs relative to untreated control. The format is functional.
Series [15] concerns Naja kaouthia. As to the kind of experiment: Protective activity against Naja kaouthia venom-induced mortality in iv dosed Swiss albino mouse assessed as administered 30 to 60 mins after venom injection. The format is functional, organism-based.
Series [16] in a line: Protective activity against Daboia russellii venom-induced defibrinogenation in iv dosed Swiss albino mouse assessed as venom level causing blood coagulation at 100 mmol administered immediately after venom injection (reference value: 2.5 ug). The format is functional, Daboia russelii.
Series [17] in a line: as §2. The class given is functional, Daboia russelii.
Series [18] is described as follows: Protective activity against Daboia russellii venom-induced mortality by measuring venom LD50 in Swiss albino mouse at 100 mmol, iv preincubated with venom for 1 hr followed by administration to mouse measured after 24 hrs (reference value: 2.28 ug). The format is functional, Daboia russelii.
The subject of series [19] is Daboia russelii. As to the kind of experiment: (§4) Protective activity against Daboia russellii venom-induced defibrinogenation in iv dosed Swiss albino mouse assessed as blood coagulation at 100 mmol administered immediately after venom injection relative to untreated control. The class given is functional.
Series [20] can be described thus: (§5) Protective activity against Daboia russellii venom-induced mortality in Swiss albino mouse at 100 mmol, iv by measuring venom LD50 administered immediately after venom injection measured after 24 hrs (reference value: 2.28ug). The class given is functional, Daboia russelii.
Series [21] is described as follows: Protective activity against Daboia russellii venom-induced defibrinogenation in iv dosed Swiss albino mouse assessed as venom level causing blood coagulation at 100 mmol preincubated with venom for 1 hr followed by administration to mouse (reference value: 2.5 ug). The class given is functional, Daboia russelii.
For series [22], the system named is Daboia russelii. Described as §1. The class given is functional.
The subject of series [23] is Naja kaouthia.
Series [24] concerns Daboia russelii.
For series [25], the system named is Naja kaouthia. This is another data set of the same source.
Description: Protective activity against Naja kaouthia venom-induced mortality in Swiss albino mouse at 100 mmol, iv by measuring venom LD50 administered immediately after venom injection measured after 24 hrs (Rvb = 2.82 ug)
Series [26] concerns Daboia russelii. The series is described as §5. The class given is functional.
In series [27] the test system is Daboia russelii. Description: Protective activity against Daboia russellii venom-induced mortality in iv dosed Swiss albino mouse administered immediately after venom injection relative to untreated control. The format is functional, organism-based.
The nature of series [28]: as §3. The class given is functional, Daboia russelii.
Series [29] has as its target T1, Basic phospholipase A2 VRV-PL-VIIIa (Daboia russelii) (UniProt P59071).
T1 sequence (whole entry): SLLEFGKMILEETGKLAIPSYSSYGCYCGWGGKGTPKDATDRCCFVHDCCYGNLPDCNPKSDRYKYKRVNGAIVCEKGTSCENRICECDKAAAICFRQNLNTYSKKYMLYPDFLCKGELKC
Description: Inhibition of Daboia russellii venom PLA2 activity assessed as decrease in coagulation time of egg yolk at 20 mmol preincubated with venom for 1 hr followed by egg yolk addition measured after 1 hr.

A short description of series [30]: Protective activity against Daboia russellii venom-induced mortality in iv dosed Swiss albino mouse administered 30 mins after venom injection relative to untreated control. The format is functional, Daboia russelii.
The nature of series [31]: as §4. The format is functional, Daboia russelii.
Series [32] concerns Naja kaouthia. As to the kind of experiment: Protective activity against Naja kaouthia venom-induced mortality in Swiss albino mouse at 12 mmol, iv by measuring venom LD50 administered immediately after venom injection measured after 24 hrs (reference value: 2.82 ug). The class given is functional, organism-based.
The nature of series [33]: Protective activity against Daboia russellii venom-induced mortality in Swiss albino mouse at 12 mmol, iv by measuring venom LD50 administered immediately after venom injection measured after 24 hrs (reference value: 2.28ug). The class given is functional, Daboia russelii.
The nature of series [34]: Protective activity against Daboia russellii venom-induced mortality by measuring venom LD50 in Swiss albino mouse at 12 mmol, iv preincubated with venom for 1 hr followed by administration to mouse measured after 24 hrs (reference value: 2.28 ug). The class given is functional, Daboia russelii.
The nature of series [35]: Protective activity against Daboia russellii venom-induced hemorrhage in Swiss albino mouse at 12 mmol, iv assessed as hemorhagic lesion by measuring […] administered immediately after venom injection measured after 24 hrs (Rvb =5 ug). The class given is functional, Daboia russelii.
The nature of series [36]: Protective activity against Naja kaouthia venom-induced mortality in Swiss albino mouse at 12 mmol, iv by measuring venom LD50 preincubated with venom for 1 hr followed by administration to mouse measured after 24 hrs (reference value: 2.82 ug). The class given is functional.
A short description of series [37]: Protective activity against Daboia russellii venom-induced hemorrhage in intradermally dosed Swiss albino mouse at 12 mmol assessed as hemorhagic lesion by measuring minimal […] dose preincubated with venom for 1 hr followed by administration to mouse measured after 24 hrs (reference value: 5 ug). The format is functional, Daboia russelii.

As to `O=Cc1ccccc1O`, the MHC in [1] came to 10 µg. Besides, the MHC result in series [2] is “inactive”.
In the case of `O=Cc1ccc(O)cc1O`, the “fold change (FC)” value in series [3] turned out to be 1; in series [4] it was 2.6; in series [6] it was 1; in [7], 2.5; in series [13] it was 10; in [14] it was 1.6. Also, the MHC worked out at 5 µg in series [1] and 50 µg in series [17]. Also, the LD50 in series [5] was 3 µg; in series [9], 8 µg; in series [18], 6 µg; in series [20], 100 µg. The logP (as a rule, the decadic logarithm of the partition coefficient of the neutral form, usually between octanol and water) in series [8] came to 1.19. Also, the Activity turned out to be 10% in series [10], 2.5 µg in [16] and 2.5 µg in series [21]. In addition, the “fold change (FC)” value in series [11] and in series [19] was “inactive” throughout. The result in series [12] was Active. Besides, the outcome in [15] was inactive.
For `CC(=O)Oc1ccc(C=O)c(O)c1`, the MHC entry in [22] and in [2] was “inactive” throughout. Also, the LD50 entry in [23], in series [24], in series [25] and in [26] was “inactive” in each case. Also, the logP in series [8] was 0.94.
For the compound `OCc1cccc(O)c1O`, the “fold change (FC)” value in [3] is recorded as 2; in series [4] it was 8; in series [6], 2.1; in series [7], 2.5; in [13], 3; in [14] it was 2. The MHC in series [1] was found to be 10 µg; in [17], 15 µg. Also, the LD50 was determined as 6 µg in series [5], 10 µg in series [9], 18 µg in [18] and 100 µg in [20]. Moreover, the “fold change (FC)” value in series [11] and in [19] was “inactive” in each case. Also, the outcome in [12] was Active. Besides, the result in [15] was inactive. Also, the Activity in series [16] and in series [21] was 2.5 µg throughout.
Take `COc1cccc(CO)c1O`: the “fold change (FC)” value is 2 in series [3]; 11.2 in [4]; 3.2 in series [6]; 3.75 in series [7]; 10 in [28]; 8 in [13]. Besides, the “fold change (FC)” value in [14] stood at 2; in series [31], 1.5. For the same compound, the result in [27] and in [12] was Active. Besides, the results for the MHC in series [1] and in series [17] were 10 µg and 40 µg, respectively. The LD50 in series [5] amounted to 9 µg; in series [9], 10 µg; in series [18], 25 µg; in series [20], 150 µg. The Activity is 10% in series [10], 3.5 µg in [16], 40% in [30] and 25 µg in [21]. The inhibition result in series [29] was “Active”. The result in series [15] was inactive.
`O=Cc1ccccc1` [BENZALDEHYDE]: the MHC entry in series [22] and in [2] was “inactive” in each case. The LD50 entry in series [23], in [24], in [25] and in series [26] was “inactive” throughout. Moreover, in series [8], the lipophilicity (logP) was 1.47.
As for `CC(=O)Oc1ccccc1C(=O)O` [ASPIRIN], the LD50 entry in series [32] is “inactive”. For the same compound, the LD50 was 50 µg in series [33], 6.6 µg in series [34] and 3 µg in series [36]. In addition, in [8], the log partition coefficient (logP) was determined as 1.24. Further, the MHC in series [35] came out at 10 µg; in [37], 100 µg.
For `COc1ccc(C=O)c(O)c1`, the “fold change (FC)” value came out at 2 in series [3]; 9.8 in [4]; 3.2 in series [6]; 3.75 in series [7]; 8.8 in [28]; 10 in series [13]. The “fold change (FC)” value worked out at 2 in [14] and 1.5 in [31]. In addition, the outcome in [27] and in [12] was Active. The MHC in series [1] came out at 10 µg; in series [17], 50 µg. Moreover, the LD50 came to 9 µg in series [5], 10 µg in series [9], 22 µg in [18] and 150 µg in [20]. The logP in series [8] was found to be 3.19. The Activity in series [10] is 10%; in series [16], 3.5 µg; in series [30], 40%; in series [21] it was 22 µg. In addition, the outcome in [15] was inactive.
`O=[N+]([O-])c1ccc2c(c1)OCO2`: the MHC result in series [22] and in series [2] was “inactive” in each case. Moreover, the LD50 entry in series [23], in series [24], in series [25] and in [26] was “inactive” throughout. In addition, in series [8], the log partition coefficient (logP) worked out at 1.47.
